≈ marks a conversion by molar mass, not a printed value.
Experiments:
[1] = test system: K. pneumoniae NVT1001 harbouring the pACYC177 plasmid with blaOXA-48; test: Broth microdilution MIC (CLSI); assay type: cell-based; conditions: Klebsiella pneumoniae; broth microdilution test; NVT1001 with pACYC177 blaOXA-48
Method: The MICs of antibiotics were determined using the Etest (Biodisk AB, Sweden) according to the manufacturer's instructions. The MICs from the Etest, which fall between standard two-fold dilutions, were rounded up to the next highest two-fold value. The MICs of ceftazidime and cefotaxime against K. pneumoniae NVT1001 harbouring the pACYC177 plasmid with blaOXA-48 were further determined using a broth microdilution test according to the recommendations of the CLSI,^25 and the results were interpreted according to the breakpoints established by the CLSI in 2017.^25 Meanwhile, due to the lack of CLSI breakpoints in 2016 and 2017, the results for cephalothin were interpreted according to the breakpoints established by the CLSI in 2015,^26 and the results for moxifloxacin were interpreted according to the breakpoints established by the EUCAST in 2017.^27

[2] = test system: K. pneumoniae NVT1001 harbouring the pACYC177 plasmid with blaOXA-48; test: Mouse peritonitis-sepsis infection model; assay type: in vivo, Klebsiella pneumoniae
Method: Pathogen-free 6- to 8-week-old male BALB/c mice were obtained from the National Laboratory Animal Center (Taiwan) and maintained in the pathogen-free vivarium of the Laboratory Animal Center of National Defense Medical Center (Taiwan). K. pneumoniae NVT1001 harbouring the pACYC177 plasmid with blaOXA-48 was cultured overnight at 37° C. in BHI broth and then diluted (1:100) in fresh BHI broth. The culture was incubated until the mid-exponential growth phase, and the cells were then washed once, resuspended in 0.85% sterile saline, and adjusted to the desired concentrations according to the OD600 value. The concentrations were verified by plating the cells to determine viable counts. […] Meanwhile, antibiotic doses were prepared in 0.85% sterile saline. At 1 hour post-inoculation, antibiotic or 0.85% sterile saline alone was administered as a single subcutaneous injection with a volume of 0.3 mL per dose. The mice were then monitored daily for 7 days to measure survival.

[3] = test system: clinical K. pneumoniae isolate producing the carbapenemase OXA-48; conditions: previous study; cited from earlier work
[4] = test system: clinical K. pneumoniae isolate producing the carbapenemase OXA-48; conditions: previous study; cited from earlier work; remark: listed apart in the source
[5] = test system: A. baumannii KW1 strains with β-lactamase plasmids; test: Etest MIC of β-lactams, extended-spectrum β-lactamase, AmpC β-lactamase or carbapenemase (Table 18); assay type: cell-based, Acinetobacter baumannii; conditions: production of OXA-type carbapenemases
In short: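 A. baumannii KW1 transformed by electroporation with pYMAb5 or pYMAb5Tc carrying PCR-cloned resistance genes plus flanking regions from clinical plasmids. MICs by Etest; values between two-fold dilutions rounded up to the next two-fold value.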

Structure (SMILES) | MIC [1] | survival of mice ([2]; BALB/c mice, 30 mg/kg) | ED50 (comparison) [3] | MIC relative to that of cefotaxime [4] | effects on the MIC [5] | in vivo efficacy (comparison) ([2]; BALB/c mice) | ED50 ([2]; Klebsiella pneumoniae, sc, read-out: estimated ED50)
CO/N=C(\C(=O)N[C@@H]1C(=O)N2C(C(=O)O)=C(COC(C)=O)CS[C@H]12)c1csc(N)n1 [Cefotaxime] | 2 µg/mL (≈ 4.39 µM) | no mice survived | – | – | – | – | –
CC(C)(O/N=C(\C(=O)N[C@@H]1C(=O)N2C(C(=O)[O-])=C(C[n+]3ccccc3)CS[C@H]12)c1csc(N)n1)C(=O)O [Ceftazidime] | 0.5 µg/mL (≈ 0.915 µM) | – | lower than that of cefotaxime | 4 fold lower | no increase effects | higher than that of cefotaxime | 30 mg/kg

— patent US10760110B2, “Antibiotic testing and screening system” (priority 2017, dated 2020)
